Where two headings read alike, the source gives them in different places.
Experiments:
hPPARδ [1] = molecular target: T1, hPPARδ (Homo sapiens, UniProt Q03181); test: Transfection assay (luciferase reporter), PPARδ; assay type: cell-based; settings: CV-1 cells, full length PPAR plasmid, 24 hours
T1 construct: Full length PPARs plasmid DNA; expressed in transfected cells; host or cells: CV-1 cells
T1 sequence (Q03181 1-441): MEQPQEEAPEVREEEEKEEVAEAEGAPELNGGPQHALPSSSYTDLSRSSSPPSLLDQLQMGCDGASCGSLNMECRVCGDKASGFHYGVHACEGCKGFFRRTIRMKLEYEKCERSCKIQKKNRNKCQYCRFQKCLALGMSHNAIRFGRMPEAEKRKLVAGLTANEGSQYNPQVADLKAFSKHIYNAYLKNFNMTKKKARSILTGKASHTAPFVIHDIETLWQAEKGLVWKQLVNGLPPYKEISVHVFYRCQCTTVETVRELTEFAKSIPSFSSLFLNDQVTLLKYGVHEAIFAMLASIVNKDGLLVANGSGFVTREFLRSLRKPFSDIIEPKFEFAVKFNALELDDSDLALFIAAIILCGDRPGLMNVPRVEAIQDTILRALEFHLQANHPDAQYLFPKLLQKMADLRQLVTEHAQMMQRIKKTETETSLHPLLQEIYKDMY
Method: (§1) The PPARδ activity of the compound represented by formula (I) of the present invention was confirmed by transfection assay. In addition, the selectivity to PPAR subtypes, PPARα and PPARγ was examined. Cytotoxicity was tested by MTT assay and in vivo activity was investigated by animal experiment.
(§2) CV-1 cells were used in this assay. The cells were inoculated in a 96-well plate containing DMEM supplemented with 10% FBS, DBS (delipidated) and 1% penicillin/streptomycin and cultured in a 37° C., 5% CO2 incubator. The experiment was performed according to the steps of inoculation, transfection, sample treatment and confirmation. Particularly, CV-1 cells were inoculated in a 96 well-plate (5000 cells/well), followed by transfection 24 hours later. Full length PPARs plasmid DNA, reporter DNA confirming PPARs activity owing to its luciferase activity, β-galactosidase DNA providing information on transfection efficiency, and transfection reagent were used for the transfection. Samples were dissolved in dimethylsulfoxide (DMSO), which were treated to the cells via media at different concentrations. After culturing the cells in the incubator for 24 hours, the cells were lysed by using lysis buffer. Luciferase activity and β-galactosidase activity were measured with Luminometer and a microplate reader. The obtained values of luciferase were modified by the values of β-galactosidase. A graph was made with those values and EC50 was calculated.

hPPARγ = molecular target: T2, hPPARγ (Homo sapiens, UniProt P37231); test: Transfection assay (luciferase reporter), PPARγ; assay type: cell-based; settings: CV-1 cells, full length PPAR plasmid, 24 hours
T2 construct: Full length PPARs plasmid DNA; expressed in transfected cells; host or cells: CV-1 cells
T2 sequence (P37231 1-505): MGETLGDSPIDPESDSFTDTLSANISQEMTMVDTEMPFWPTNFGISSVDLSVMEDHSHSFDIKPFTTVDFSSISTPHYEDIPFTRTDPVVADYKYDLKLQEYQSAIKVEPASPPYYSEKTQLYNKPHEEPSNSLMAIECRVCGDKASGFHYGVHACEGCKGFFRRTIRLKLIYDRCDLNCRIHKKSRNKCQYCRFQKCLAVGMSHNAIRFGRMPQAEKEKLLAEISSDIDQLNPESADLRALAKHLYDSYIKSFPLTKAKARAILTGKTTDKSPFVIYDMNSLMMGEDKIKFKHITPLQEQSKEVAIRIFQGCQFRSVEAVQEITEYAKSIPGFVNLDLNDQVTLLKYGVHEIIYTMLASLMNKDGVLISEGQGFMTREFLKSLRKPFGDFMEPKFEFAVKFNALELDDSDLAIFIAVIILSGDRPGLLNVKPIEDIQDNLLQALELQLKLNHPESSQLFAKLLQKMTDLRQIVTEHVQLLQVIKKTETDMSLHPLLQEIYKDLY
Method: as §1, §2

hPPARα = molecular target: T3, hPPARα (Homo sapiens, UniProt Q07869); test: Transfection assay (luciferase reporter), PPARα; assay type: cell-based; settings: CV-1 cells, full length PPAR plasmid, 24 hours
T3 construct: Full length PPARs plasmid DNA; expressed in transfected cells; host or cells: CV-1 cells
T3 sequence (Q07869 1-468): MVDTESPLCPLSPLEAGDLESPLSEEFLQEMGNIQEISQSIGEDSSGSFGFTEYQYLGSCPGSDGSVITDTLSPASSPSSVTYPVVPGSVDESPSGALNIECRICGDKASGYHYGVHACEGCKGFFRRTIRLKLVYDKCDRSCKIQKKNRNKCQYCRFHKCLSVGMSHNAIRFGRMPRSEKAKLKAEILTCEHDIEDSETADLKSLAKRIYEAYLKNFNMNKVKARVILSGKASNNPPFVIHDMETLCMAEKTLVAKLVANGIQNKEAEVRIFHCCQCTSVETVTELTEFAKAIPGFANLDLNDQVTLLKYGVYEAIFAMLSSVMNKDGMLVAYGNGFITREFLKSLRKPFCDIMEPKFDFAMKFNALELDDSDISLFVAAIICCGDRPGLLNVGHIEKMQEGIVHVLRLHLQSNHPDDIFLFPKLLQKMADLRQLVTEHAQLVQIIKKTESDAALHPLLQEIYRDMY
Method: as §1, §2

[2] = Morris water maze test, treatment during pregnancy and lactation; assay type: in vivo; settings: 10 mg/kg oral to pregnant mice in pregnancy and lactation; control 24.2 sec
Method: An animal test was performed to investigate the therapeutic effect of the compound of the present invention on dementia and Parkinson's disease based on the memory improving effect thereof. To confirm the effect of the compound of the present invention in the period of brain development, the compound was orally administered to pregnant mice at the concentration of 10 mg/kg in the periods of pregnancy and lactation. Morris water maze test was performed to detect any changes of the brain functions of the treatment group and the control group. This test facilitates the study of spatial learning and memory, which largely depends on the hippocampus in the brain.

[3] = Obesity inhibitory effect, high-fat feed mice; assay type: in vivo, C57BL/6 mice; settings: 10 mg/kg/day oral, 60 days, feeds containing 35% fat
Method: Obesity Inhibitory Effect
An animal test using mice was performed to confirm the in vivo effect of the compound of the present invention. C57BL/6 (SLC Co.) mice at 8 weeks were used. To induce obesity, feeds containing 35% fat were given. While feeding such high-fat feeds for 60 days, vehicle, S14, S46 and S106 (10 mg/kg/day) were orally administered.

[4] = GTT (glucose tolerance test), diabetes improving effect; assay type: in vivo, mice; settings: 10 mg/Kg/day oral; for fasting blood glucose versus control: 57 days; for diabetes improving effect: GTT
Method: Diabetes Improving Effect
GTT (glucose tolerance test) was performed to confirm the diabetes improving effect of the compound of the present invention. Glucose (1.5 g/Kg) was intra-abdominally administered to the mice pre-treated orally with samples for 57 days. Blood glucose was measured every hour. Fasting blood glucose was lower in the S14, S46 and S106 (10 mg/Kg/day) treated groups than in control. […] In the meantime, the blood glucose level was not recovered to normal in the vehicle treated group even after 120 minutes.

[5] = Morris water maze test in LPS brain disease animal model; assay type: in vivo, C57BL/6 mice
Method: The therapeutic effect of the compound of the present invention on dementia and Parkinson's disease based on the memory improving effect thereof was investigated using brain disease animal model (C57BL/6 mice at 10 weeks). First, LPS was injected into the mouse brain to construct brain disease animal model. The mice were divided into four groups according to the administration and exercise. The exercise was performed with treadmill at the speed of 2 meter/min for the first 5 minutes, at 5 meter/min for 5 minutes, at 8 meter/min for 5 minutes and at 20 meter/min for the last 5 minutes. At the finish, Morris water maze test was performed. As a result, the therapeutic effect of the compound of the invention on dementia and Parkinson's disease via memory enhancement by the compound and exercise was confirmed in the brain disease animal model.

[6] = Muscle endurance test (treadmill) in adult mice with forced exercise; assay type: in vivo, C57BL/6 mice; settings: 10 mg/kg oral, adult mice at 10 weeks, 30 days treadmill exercise
Method: Particularly, S14, S46 and S106 were orally administered to C57BL/6 mice at 10 weeks at the concentration of 10 mg/kg, during which the mice were forced to exercise. The exercise was performed with treadmill for […] once a day for 30 days, precisely at the speed of 2 meter/min for the first 5 minutes, at 5 meter/min for 5 minutes, at 8 meter/min for 5 minutes and at 20 meter/min for the last 5 minutes. At the finish, muscle endurance and muscle function enhancing effect was tested by using treadmill. As a result, the time (S14 treated group: 1.5 fold, S46 treated group: 1.3 fold, S106 treated group: 1.4 fold increased) and distance (S14 treated group: 1.5 fold, S46 treated group: 1.3 fold, S106 treated group: 1.4 fold increased) of exercise were all increased in the treatment group, compared with the control.

[7] = Muscle endurance test (treadmill), treatment during pregnancy and/or lactation; assay type: in vivo, mice; settings: 10 mg/Kg/day
Method: Muscle Endurance Strengthening and Muscle Function Enhancing Effect
An animal test was performed to confirm muscle endurance strengthening and muscle function enhancing effect of the composition of the present invention. Most muscles are generated in developmental stage. Thus, S14, S46 and S106 (10 mg/Kg/day) were treated to pregnant mice in the period of either pregnancy or lactation or both pregnancy and lactation. Weight gaining and growth rate were not much different between fetuses of the control group and the treatment group. Muscles were observed after removing skin. As a result, muscles of the treatment group were red, unlike the control. ATPase staining and immunostaining were performed. As a result, type I muscle fiber was increased in the treatment group. The role of the changes of the muscle fiber in the enhancement of muscle endurance and muscle function was investigated by using treadmill test. As a result, running time was much extended in the treatment group, compared with the control.

hPPARδ [8] = molecular target: T1, hPPARδ; settings: literature, cited from earlier work
[9] = treated in pregnancy + lactation

Compound | EC50 (hPPARδ [1]) | EC50 hPPARγ (hPPARγ) | EC50 hPPARα (hPPARα) | average time spent to find the platform [2] | weight increase compared with the vehicle group [3] | fasting blood glucose versus control [4] | diabetes improving effect [4] | Results of water maze test ([5]; Exercise (X)) | Results of water maze test ([5]; Exercise (◯)) | distance of exercise, increase compared with the control [6] | time of exercise, increase compared with the control [6] | increasing rate (treatment group/control group), length ([7]; treated in lactation) | increasing rate (treatment group/control group), time ([7]; treated in lactation) | increasing rate (treatment group/control group), length [7, 9] | increasing rate (treatment group/control group), time [7, 9] | increasing rate (treatment group/control group), length ([7]; treated in pregnancy) | increasing rate (treatment group/control group), time ([7]; treated in pregnancy) | EC50 (hPPARδ [8]; human PPARδ) | selectivity to hPPARδ over PPARα or PPARγ (hPPARδ [8])
Cc1cc(SC(Cc2ccccc2)c2ccc(-c3ccc(C(F)(F)F)cc3)cc2)ccc1OC(C)(C)C(=O)O (centres unmarked) [Compound 22] | 9.3 nM | ia | ia |  |  |  |  |  |  |  |  |  |  |  |  |  |  |  | 
CCC(Oc1ccc(SC(Cc2ccccc2)c2ccc(-c3ccc(C(F)(F)F)cc3)cc2)cc1C)C(=O)O (centres unmarked) [Compound 23] | 12 nM | ia | ia |  |  |  |  |  |  |  |  |  |  |  |  |  |  |  | 
CCCc1c(OCCCOc2ccc(OCC(=O)O)cc2)ccc(C(C)=O)c1O [Compound L-165041] |  |  |  |  |  |  |  |  |  |  |  |  |  |  |  |  |  | 530 nM | 10 times
Cc1cc([Se]C(Cc2ccccc2)c2ccc(-c3ccc(C(F)(F)F)cc3)cc2)ccc1OCC(=O)O (centres unmarked) [Compound S164] | 4.5 nM | ia | ia |  |  |  |  |  |  |  |  |  |  |  |  |  |  |  | 

Continued, in another order:

EC50 (hPPARδ [1]) | EC50 hPPARγ (hPPARγ) | EC50 hPPARα (hPPARα) | Compound | average time spent to find the platform [2] | weight increase compared with the vehicle group [3] | fasting blood glucose versus control [4] | diabetes improving effect [4] | Results of water maze test ([5]; Exercise (X)) | Results of water maze test ([5]; Exercise (◯)) | distance of exercise, increase compared with the control [6] | time of exercise, increase compared with the control [6] | increasing rate (treatment group/control group), length ([7]; treated in lactation) | increasing rate (treatment group/control group), time ([7]; treated in lactation) | increasing rate (treatment group/control group), length [7, 9] | increasing rate (treatment group/control group), time [7, 9] | increasing rate (treatment group/control group), length ([7]; treated in pregnancy) | increasing rate (treatment group/control group), time ([7]; treated in pregnancy) | EC50 (hPPARδ [8]; human PPARδ) | selectivity to hPPARδ over PPARα or PPARγ (hPPARδ [8])
3.7 nM | ia | ia | Cc1cc(SC(Cc2ccccc2)c2ccc(-c3cc(F)c(F)c(F)c3)cc2)ccc1OCC(=O)O (centres unmarked) [Compound 46] | 7.8 s | 43% | lower | had diabetes improving effect | 27 s | 18 s | 1.3 fold | 1.3 fold | 1.5 times | 1.5 times | 3.0 times | 2.8 times | 1.9 times | 1.9 times |  | 
33 nM | ia | ia | Cc1cc(SC(Cc2c(F)cccc2C(F)(F)F)c2ccc(-c3ccccc3)cc2)ccc1OCC(=O)O (centres unmarked) [Compound 66] |  |  |  |  |  |  |  |  |  |  |  |  |  |  |  | 
3.2 nM | ia | ia | Cc1cc(SC(Cc2ccccc2)c2ccc(-c3ccc(C(F)(F)F)cc3)nc2)ccc1OCC(=O)O (centres unmarked) [Compound 106] | 6.1 s | 37% | lower | had diabetes improving effect | 23 s | 15 s | 1.4 fold | 1.4 fold | 1.8 times | 1.8 times | 3.4 times | 3.2 times | 2.2 times | 2.1 times |  | 
2.6 nM | ia | ia | Cc1cc(SC(Cc2ccccc2)c2ccc(-c3ccc(C(F)(F)F)cc3)cc2)ccc1OCC(=O)O (centres unmarked) [Compound S14] | 5.2 s | 31% | lower | had diabetes improving effect | 21 s | 12 s | 1.5 fold | 1.5 fold | 2.2 times | 2.1 times | 3.9 times | 3.6 times | 2.5 times | 2.4 times |  | 
53 nM | ia | ia | Cc1cc([Se]Cc2ccc(-c3ccc(C(F)(F)F)cc3)cc2)ccc1OCC(=O)O [Compound S306] |  |  |  |  |  |  |  |  |  |  |  |  |  |  |  | 

From patent US8519145B2, “Aryl compounds as PPAR ligands and their use” (Seoul National University Industry Foundation, priority 2006, dated 2013)
